{"source": "patent US20190105367A1", "about": "“ANTIMICROBIAL 4-OXOQUINOLIZINES” (Emergent Product Development Gaithersburg Inc., priority 2011, published 2019)", "key": {"[1]": {"system": "strains of A. baumannii and one strain of Acinetobacter sp.", "assay": "MIC without polymyxin B, panel of Acinetobacter strains (Example 4)", "assay_type": "cell-based", "details": "for MIC range without PB Oct. 1, 2006 n = 8: 1st experiment"}, "[2]": {"system": "S. pneumoniae 1027", "assay": "MIC, panel of quinolone-resistant strains (Example 2)", "assay_type": "cell-based", "details": "Streptococcus pneumoniae, LEV R"}, "[3]": {"system": "E. coli IMP", "assay": "microbe, parasite or virus in culture", "details": "Escherichia coli, read-out: MIC E. coli IMP"}, "[4]": {"system": "P. aeruginosa 27853", "assay": "MIC, standard panel of Gram-positive and Gram-negative strains (Example 2)", "assay_type": "cell-based", "details": "Pseudomonas aeruginosa"}, "[5]": {"system": "E. coli 25922", "assay": "MIC, standard panel of Gram-positive and Gram-negative strains (Example 2)", "assay_type": "cell-based", "details": "Escherichia coli"}, "[6]": {"system": "S. aureus ATCC 25923", "assay": "MIC, selected panel of bacterial strains (Example 5)", "assay_type": "cell-based, Staphylococcus aureus", "details": "Staphylococcus aureus, ATCC25923; read-out: MICs against Gram positive bacteria S. aureus ATCC 25923"}, "[7]": {"system": "Acinetobacter spp. H064200250", "assay": "MIC determination for Acinetobacter strains (Example 3)", "assay_type": "cell-based, Acinetobacter sp.", "details": "LEV R, CIP R, MRP R, IMP I"}, "[8]": {"system": "A. baumannii A329", "assay": "MIC determination for Acinetobacter strains (Example 3)", "assay_type": "cell-based, Acinetobacter baumannii", "details": "LEV R, CIP R, MRP R, IMP R, AMK R, TET R"}, "[9]": {"system": "A. baumannii J2", "assay": "MIC determination for Acinetobacter strains (Example 3)", "assay_type": "cell-based, Acinetobacter baumannii", "details": "LEV R, CIP R"}, "[10]": {"system": "A. baumannii A473", "assay": "MIC determination for Acinetobacter strains (Example 3)", "assay_type": "cell-based, Acinetobacter baumannii", "details": "LEV R, CIP R, MRP R, IMP R, AMK R, TET R"}, "[11]": {"system": "A. baumannii A390", "assay": "MIC determination for Acinetobacter strains (Example 3)", "assay_type": "cell-based, Acinetobacter baumannii", "details": "LEV R, CIP R, MRP R, IPM I, AMK R, TET I"}, "[12]": {"system": "A. baumannii ATCC 19606", "assay": "MIC determination for Acinetobacter strains (Example 3)", "assay_type": "cell-based, Acinetobacter baumannii", "details": "reference strain"}, "[13]": {"system": "A. baumannii A401", "assay": "MIC determination for Acinetobacter strains (Example 3)", "assay_type": "cell-based, Acinetobacter baumannii", "details": "LEV R, CIP R, AMK R, TET R"}, "[14]": {"system": "A. baumannii A472", "assay": "MIC determination for Acinetobacter strains (Example 3)", "assay_type": "cell-based, Acinetobacter baumannii", "details": "LEV R, CIP R, MRP I, IMP I, AMK R, TET R"}, "[15]": {"system": "A. baumannii A489", "assay": "MIC determination for Acinetobacter strains (Example 3)", "assay_type": "cell-based, Acinetobacter baumannii", "details": "LEV R, CIP R, MRP R, IMP R, AMK R, TET R"}, "[16]": {"system": "A. baumannii A387", "assay": "MIC determination for Acinetobacter strains (Example 3)", "assay_type": "cell-based, Acinetobacter baumannii", "details": "LEV I, CIP R, IPM R, AMK R, TET R"}, "[17]": {"system": "GN48 Klebsiella pneumoniae", "assay": "Pre-chequerboard MIC for synergy study (Example 6)", "assay_type": "cell-based", "details": "NCTC 13443, NDM-1", "excerpt": "(§1) A chequerboard technique was used to identify possible synergistic or antagonistic interactions between the 4-oxoquinolizines compounds, levofloxacin and polymyxin B. Levofloxacin was included as a control. […] Final dilutions were made in Mueller-Hinton broth, the specific test medium used for MIC determinations according to CLSI guidelines (CLSI. Methods for Dilution Antimicrobial Susceptibility Tests for Bacteria That Grow Aerobically; Approved Standard-Eighth Edition (2009). CLSI Document M07-A8. CLSI, Wayne, Pa. 19087-1898, USA.). The test medium used was a cation-adjusted Mueller-Hinton Broth II (Becton Dickinson UK Ltd., Oxford Science Park, Oxford, UK, OX4 4DQ).\n(§2) The compounds 2, 33 and 35, as well as levofloxacin were tested in combination with polymyxin B on the following isolates: GN31 Acinetobacter baumannii—antibiotic susceptible clinical isolate, GN52 Acinetobacter baumannii—levofloxacin resistant clinical isolate, GN56 Acinetobacter baumannii—levofloxacin resistant clinical isolate, GN48 Klebsiella pneumoniae—NCTC 13443—NDM-1-metallo-β-lactamase and GN10 Pseudomonas aeruginosa—ATCC 27853—antibiotic susceptible reference isolate. All isolates are from the collection maintained at Quotient Bioresearch Ltd., Cambridge, UK.\n(§3) The MIC values for the compounds and polymyxin B and levofloxacin were determined by broth microdilution following CLSI guidelines, and the MICs of agents in combination were determined as described by Pillai et. al (Pillai S K, Moellering R C Jr, Eliopoulis G M; Antimicrobial Combinations in Antibiotics in Laboratory Medicine 5th Edition (V. Lorian Ed) (2005) p 365-440). Initial MIC results were used to determine the microtiter plate patterns for the chequerboards. A suitable doubling dilution concentration range was selected such that the combination antibiotic range was at least two concentrations above and four concentrations below the MIC for each isolate. A fixed range of 0.008 to 8 mg/L was tested for polymyxin B except in the case of A. baumannii GN31 where a range of 0.004 to 4 mg/L was tested when in combination with the compounds 2, 33 and 35 as well as levofloxacin."}, "[18]": {"system": "GN56 Acinetobacter baumannii", "assay": "Pre-chequerboard MIC for synergy study (Example 6)", "assay_type": "cell-based", "details": "levofloxacin resistant clinical isolate", "excerpt": "as §1, §2, §3"}, "[19]": {"system": "GN10 Pseudomonas aeruginosa", "assay": "Pre-chequerboard MIC for synergy study (Example 6)", "assay_type": "cell-based", "details": "ATCC 27853, antibiotic susceptible", "excerpt": "as §1, §2, §3"}, "[20]": {"system": "GN31 Acinetobacter baumannii", "assay": "Pre-chequerboard MIC for synergy study (Example 6)", "assay_type": "cell-based", "details": "antibiotic susceptible clinical isolate", "excerpt": "as §1, §2, §3"}, "[21]": {"system": "GN52 Acinetobacter baumannii", "assay": "Pre-chequerboard MIC for synergy study (Example 6)", "assay_type": "cell-based", "details": "levofloxacin resistant clinical isolate", "excerpt": "as §1, §2, §3"}, "[22]": {"details": "resistant strains, ATCC 19606, A329, A390 and A473 not taken"}}}
{"compound": "8-[(3S)-3-aminocyclopentyl]-1- cyclopropyl-7-fluoro-9-methyl- 4-oxo-quinolizine-3-carboxylic acid [Compound 10, reference compound]", "values": [{"measurement": "MIC range without PB Oct. 1, 2006 n = 8", "setting": "[1]; [22]", "value": "0.5 to 8", "unit": "µg/mL"}, {"measurement": "MIC range without PB Oct. 14, 2008 n = 11", "setting": "[1]; 2nd experiment, all strains except the ATCC strain", "value": "0.5 to 2", "unit": "µg/mL"}]}
{"compound": "Cc1c(-c2cc(F)c(N)cc2F)ccn2c(=O)c(C(=O)O)cc(C3CC3)c12", "note": "[Compound 2, 8-(4-amino-2,5-difluorophenyl)-1-cyclopropyl-9-methyl-4-oxo-4H-quinolizine-3-carboxylic acid]", "values": [{"measurement": "MIC", "setting": "[2]", "value": 0.5, "unit": "µg/mL"}]}
{"compound": "Cc1c(-c2cc(Cl)c(N)c(Cl)c2)ccn2c(=O)c(C(=O)O)cc(C3CC3)c12", "note": "[Compound 3, 8-(3,5-dichloro-4-amino-phenyl)-1-cyclopropyl-9-methyl-4-oxo-quinolizine-3-carboxylic acid]", "values": [{"measurement": "MIC", "setting": "[3]", "value": 0.06, "unit": "µg/mL"}]}
{"compound": "Cc1c(-c2ccc(CN)c(F)c2)ccn2c(=O)c(C(=O)O)cc(C3CC3)c12", "note": "[Compound 4, 8-(3-fluoro-4-aminomethyl-phenyl)-1-cyclopropyl-9-methyl-4-oxo-quinolizine-3-carboxylic acid]", "values": [{"measurement": "MIC", "setting": "[4]", "value": 0.5, "unit": "µg/mL"}]}
{"compound": "Cc1c(-c2ccc(CN)cc2)ccn2c(=O)c(C(=O)O)cc(C3CC3)c12", "note": "[Compound 5, 8-(4-aminomethyl-phenyl)-1-cyclopropyl-9-methyl-4-oxo-quinolizine-3-carboxylic acid]", "values": [{"measurement": "MIC", "setting": "[4]", "value": 0.5, "unit": "µg/mL"}]}
{"compound": "Cc1c(-c2ccc(CN)cc2)c(F)cn2c(=O)c(C(=O)O)cc(C3CC3)c12", "note": "[Compound 6, 8-(4-aminomethyl-phenyl)-1-cyclopropyl-7-fluoro-9-methyl-4-oxo-quinolizine-3-carboxylic acid]", "values": [{"measurement": "MIC", "setting": "[3]", "value": 0.03, "unit": "µg/mL"}]}
{"compound": "Cc1c(-c2ccc(N)cc2)c(F)cn2c(=O)c(C(=O)O)cc(C3CC3)c12", "note": "[Compound 7, 8-(4-amino-phenyl)-1-cyclopropyl-7-fluoro-9-methyl-4-oxo-quinolizine-3-carboxylic acid]", "values": [{"measurement": "MIC", "setting": "[5]", "value": 0.03, "unit": "µg/mL"}]}
{"compound": "Cc1c(-c2ccc(N)cc2)ccn2c(=O)c(C(=O)O)cc(C3CC3)c12", "note": "[Compound 8, 8-(4-amino-phenyl)-1-cyclopropyl-9-methyl-4-oxo-quinolizine-3-carboxylic acid]", "values": [{"measurement": "MIC", "setting": "[1]; Acinetobacter baumannii, ATCC19606, read-out: MIC range without PB Oct. 1, 2006 n = 8, 1st experiment, resistant strains, ATCC 19606, A329, A390 and A473 not taken", "value": "2 to 32", "unit": "µg/mL"}, {"measurement": "MIC", "setting": "[5]", "value": 0.03, "unit": "µg/mL"}]}
{"compound": "C[C@H]1COc2c(N3CCN(C)CC3)c(F)cc3c(=O)c(C(=O)O)cn1c23", "note": "[Levofloxacin, reference compound]", "values": [{"measurement": "MIC", "setting": "[6]", "value": 0.125, "unit": "µg/mL"}]}
{"compound": "Imipenem/cilastatin", "values": [{"measurement": "MIC Acinetobacter spp. H064200250", "setting": "[7]", "value": 16, "unit": "µg/mL"}, {"measurement": "MIC A. baumannii A329", "setting": "[8]", "value": 128, "unit": "µg/mL"}, {"measurement": "MIC range without PB Oct. 1, 2006 n = 8", "setting": "[1]; [22]", "value": "1 to 128", "unit": "µg/mL"}, {"measurement": "MIC A. baumannii J2", "setting": "[9]", "value": 4, "unit": "µg/mL"}, {"measurement": "MIC A. baumannii A473", "setting": "[10]", "value": 32, "unit": "µg/mL"}, {"measurement": "MIC A. baumannii A390", "setting": "[11]", "value": 16, "unit": "µg/mL"}, {"measurement": "MIC A. baumannii ATCC 19606", "setting": "[12]", "value": 2, "unit": "µg/mL"}, {"measurement": "MIC A baumannii A401", "setting": "[13]", "value": 32, "unit": "µg/mL"}, {"measurement": "MIC A. baumannii A472", "setting": "[14]", "value": 16, "unit": "µg/mL"}, {"measurement": "MIC A. baumannii A489", "setting": "[15]", "value": 128, "unit": "µg/mL"}, {"measurement": "MIC A. baumannii A387", "setting": "[16]", "value": 16, "unit": "µg/mL"}]}
{"compound": "Polymyxin B [reference compound]", "values": [{"measurement": "Pre-chequerboard MIC GN48 Klebsiella pneumoniae", "setting": "[17]", "value": 1, "unit": "µg/mL"}, {"measurement": "Pre-chequerboard MIC GN56 Acinetobacter baumannii", "setting": "[18]", "value": 0.5, "unit": "µg/mL"}, {"measurement": "Pre-chequerboard MIC GN10 Pseudomonas aeruginosa", "setting": "[19]", "value": 1, "unit": "µg/mL"}, {"measurement": "Pre-chequerboard MIC GN31 Acinetobacter baumannii", "setting": "[20]", "value": 0.5, "unit": "µg/mL"}, {"measurement": "Pre-chequerboard MIC GN52 Acinetobacter baumannii", "setting": "[21]", "value": 0.5, "unit": "µg/mL"}]}
